For assay [1], the system named is E. coli. Nature of the assay: microbe, parasite or virus in culture. As to conditions: Escherichia coli, read-out: E. coli IC50 μg mL-1.
Experimental: (§1) The in vitro antibacterial activity of the synthesized Ag(I) complexes was investigated against two bacterial strains: Gram (+) S. aureus and the Gram (−) E. coli. The assays were conducted using the broth microdilution method to determine both the half-maximal inhibitory concentrations (IC50) and minimal inhibitory concentrations (MIC).
The subject of assay [2] is S. aureus. The assay is described as follows: microbe, parasite or virus in culture. The settings on record: Staphylococcus aureus, read-out: S. aureus MIC μg mL-1.
Experimental: as §1
The subject of assay [3] is S. aureus. The assay is described as follows: microbe, parasite or virus in culture. The settings on record: Staphylococcus aureus, read-out: S. aureus IC50 μg mL-1.
Experimental: as §1
Assay [4] has as its target T1, glutathione reductase (GR) (Escherichia coli, UniProt A0A0H3JIZ9).
T1 construct: gene gor
Nature of the assay: enzyme inhibition assay with pure E. coli GR. The class given is biochemical.

Assay [5] concerns the target T2, thioredoxin reductase (TrxR) (Escherichia coli, UniProt P0A9P4).
T2 construct: gene trxB
Nature of the assay: enzyme inhibition assay with pure E. coli TrxR. The class given is biochemical.

T1 sequence (A0A0H3JIZ9 entry or part of it): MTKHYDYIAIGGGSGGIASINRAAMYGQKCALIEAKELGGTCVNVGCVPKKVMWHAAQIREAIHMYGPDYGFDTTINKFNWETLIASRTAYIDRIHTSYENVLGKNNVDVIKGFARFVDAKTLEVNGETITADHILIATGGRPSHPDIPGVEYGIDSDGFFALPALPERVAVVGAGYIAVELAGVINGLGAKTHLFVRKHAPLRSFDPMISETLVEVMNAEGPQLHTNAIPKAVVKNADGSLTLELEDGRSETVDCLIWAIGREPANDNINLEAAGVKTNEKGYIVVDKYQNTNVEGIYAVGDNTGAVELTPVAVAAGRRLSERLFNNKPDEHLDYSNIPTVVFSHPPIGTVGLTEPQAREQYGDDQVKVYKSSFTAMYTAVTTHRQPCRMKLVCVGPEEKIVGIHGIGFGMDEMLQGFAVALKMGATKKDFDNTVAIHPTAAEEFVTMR
T2 sequence (P0A9P4 2-321): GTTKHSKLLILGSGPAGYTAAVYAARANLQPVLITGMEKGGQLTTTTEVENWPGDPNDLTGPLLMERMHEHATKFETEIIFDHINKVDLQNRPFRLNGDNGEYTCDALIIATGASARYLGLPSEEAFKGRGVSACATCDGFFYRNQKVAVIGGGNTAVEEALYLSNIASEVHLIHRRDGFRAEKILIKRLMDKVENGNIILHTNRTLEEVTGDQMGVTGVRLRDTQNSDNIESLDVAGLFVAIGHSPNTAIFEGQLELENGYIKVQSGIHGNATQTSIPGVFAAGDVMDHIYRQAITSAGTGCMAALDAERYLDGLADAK

A word on the IC50: it is the concentration needed to halve the response being measured. With `c1ccc(P(c2ccccc2)c2ccccc2Oc2ccccc2P(c2ccccc2)c2ccccc2)cc1` [DPEPhos, bis[(2-diphenylphosphino)phenyl]ether], the IC50 in assay [1] and in assay [3] was more than 100 µg/mL in each case. The MIC in assay [2] was more than 100 µg/mL.
Regarding `c1ccc(P(c2ccccc2)c2ccccc2)cc1` [PPh3, thriphenylphosphine], the IC50 in assay [1] and in assay [3] was more than 100 µg/mL each time. The MIC in assay [2] is more than 100 µg/mL.
As to `O=c1[nH]c(=S)[nH]c2ccccc12` [mqztH, 2-mercapto-4(3H)-quinazolinone], the IC50 in assay [1] and in assay [3] was more than 100 µg/mL in each case. Also, in assay [2], the MIC was more than 100 µg/mL.
For [AgCl(mqztH)(PPh3)2] [compound 1], the values for the IC50 in assay [4] and in assay [5] were 65 nM and 215 nM, respectively.

For the origin of these results see article PMC12566157, “Redox-Active Quinazolinone Thioamide Ag(I) Complexes with Potent Antibacterial Activity: Mechanistic Insights and Hydrogel-Enhanced Efficacy” (Molecules, 2025).
